We go through 18 molecules from US20230257372A1 (CHONG KUN DANG PHARMACEUTICAL CORP., priority 2020, published 2023).

The target in assay [1] is T1, human recombinant HDAC1 (Homo sapiens, UniProt Q13547).
T1 construct: purchased Enzo Life Science, Inc. BML-SE456
In words: HDAC1 enzyme activity inhibition (HDAC Fluorimetric Drug Discovery Kit). The note with it: read-out: HDAC1. The assay is classed as biochemical. Put shortly: (§1)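 Fluorimetric deacetylase read-out: after 30 min with Developer II following a 60 min, 30° C reaction of recombinant enzyme ([…]) with 10 μM substrate, across five-fold serial compound dilutions.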

In assay [2] the target is T2, human recombinant HDAC6 (Homo sapiens, UniProt Q9UBN7).
T2 construct: purchased Calbiochem Inc. 382180
T2 sequence (Q9UBN7 1-1215): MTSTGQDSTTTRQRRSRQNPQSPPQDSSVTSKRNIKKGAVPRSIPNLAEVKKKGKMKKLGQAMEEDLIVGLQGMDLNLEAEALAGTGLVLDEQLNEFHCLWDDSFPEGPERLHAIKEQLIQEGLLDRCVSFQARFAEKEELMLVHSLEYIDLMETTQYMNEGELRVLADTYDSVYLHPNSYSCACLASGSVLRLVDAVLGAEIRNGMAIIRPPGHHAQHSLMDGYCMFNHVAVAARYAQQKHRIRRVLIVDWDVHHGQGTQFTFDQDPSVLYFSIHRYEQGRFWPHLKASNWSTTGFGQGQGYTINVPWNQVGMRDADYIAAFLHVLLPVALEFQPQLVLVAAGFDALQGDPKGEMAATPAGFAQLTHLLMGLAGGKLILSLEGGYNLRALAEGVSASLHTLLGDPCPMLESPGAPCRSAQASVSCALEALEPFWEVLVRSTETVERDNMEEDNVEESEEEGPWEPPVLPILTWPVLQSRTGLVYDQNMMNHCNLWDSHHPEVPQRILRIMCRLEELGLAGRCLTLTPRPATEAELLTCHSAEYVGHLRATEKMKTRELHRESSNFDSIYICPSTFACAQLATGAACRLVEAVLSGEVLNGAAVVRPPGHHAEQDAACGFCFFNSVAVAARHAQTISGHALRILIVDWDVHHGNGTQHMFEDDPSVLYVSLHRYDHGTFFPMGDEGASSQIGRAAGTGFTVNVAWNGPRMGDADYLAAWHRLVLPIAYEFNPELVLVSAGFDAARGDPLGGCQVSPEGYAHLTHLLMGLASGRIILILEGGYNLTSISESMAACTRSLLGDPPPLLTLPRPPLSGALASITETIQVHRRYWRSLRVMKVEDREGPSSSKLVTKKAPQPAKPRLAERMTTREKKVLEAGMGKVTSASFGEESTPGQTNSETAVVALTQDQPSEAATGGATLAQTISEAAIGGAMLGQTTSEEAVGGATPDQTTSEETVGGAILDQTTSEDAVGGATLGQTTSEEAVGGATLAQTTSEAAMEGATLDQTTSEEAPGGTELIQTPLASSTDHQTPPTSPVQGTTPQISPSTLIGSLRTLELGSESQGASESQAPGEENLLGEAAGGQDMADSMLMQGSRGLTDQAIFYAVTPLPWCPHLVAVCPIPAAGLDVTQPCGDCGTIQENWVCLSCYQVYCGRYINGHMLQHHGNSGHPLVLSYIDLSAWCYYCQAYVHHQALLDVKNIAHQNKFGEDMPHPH
In words: HDAC6 enzyme activity inhibition (HDAC Fluorimetric Drug Discovery Kit). The assay is classed as biochemical. Put shortly:
as §1

[3] abbreviates: human recombinant HDAC1, IC50 calculated with GraphPad Prism.
Where [4] appears, read: human recombinant HDAC6, IC50 calculated with GraphPad Prism.
Setting [5] is: human recombinant HDAC1, Fluor de Lys substrate, 30° C. 60 minutes.
Setting [6] is: human recombinant HDAC6, same protocol as HDAC1.

Like-named read-outs stand apart in the source and are kept apart here.

T1 sequence (Q13547 whole entry): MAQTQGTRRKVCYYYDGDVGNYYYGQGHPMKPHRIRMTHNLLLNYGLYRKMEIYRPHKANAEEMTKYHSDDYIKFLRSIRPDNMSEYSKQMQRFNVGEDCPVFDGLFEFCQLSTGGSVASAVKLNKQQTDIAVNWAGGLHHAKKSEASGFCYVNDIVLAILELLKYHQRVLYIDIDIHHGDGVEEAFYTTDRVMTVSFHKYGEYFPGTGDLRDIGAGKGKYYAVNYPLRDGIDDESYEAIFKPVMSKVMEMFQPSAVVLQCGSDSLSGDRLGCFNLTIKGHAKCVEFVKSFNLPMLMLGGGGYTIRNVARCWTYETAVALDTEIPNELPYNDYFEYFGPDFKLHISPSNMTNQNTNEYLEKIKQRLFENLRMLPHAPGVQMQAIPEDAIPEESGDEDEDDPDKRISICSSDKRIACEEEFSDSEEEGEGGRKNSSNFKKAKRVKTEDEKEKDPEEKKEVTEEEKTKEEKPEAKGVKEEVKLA

Regarding `FC(F)c1nnc(-c2ccc(Cn3cc(C4(F)CCOC4)nn3)nc2)o1` (stereo not drawn) [Compound 4281, 2-(difluoromethyl)-5-(6-((4-(3-fluorotetrahydrofuran-3-yl)-1H-1,2,3-triazol-1-yl)methyl)pyridin-3-yl)-1,3,4-oxadiazole], the IC50 is above 50000 nM in assay [1] (setting [3]) and 121 nM in assay [2] (setting [4]). The “HDAC6 selectivity (fold)” value in assay [2] (HDAC1 IC50 / HDAC6 IC50) is 412 fold.

Consider `Fc1cc(-c2nnc(C(F)F)o2)ccc1Cn1cc(-c2cncs2)nn1` [Compound 17851, 2-(difluoromethyl)-5-(3-fluoro-4-((4-(thiazol-5-yl)-1H-1,2,3-triazol-1-yl)methyl)phenyl)-1,3,4-oxadiazole], for which the IC50 is above 50000 nM in assay [1] (setting [5]) and 84.9 nM in assay [2] (setting [6]). In addition, in assay [2] (HDAC6 over HDAC1), the “HDAC6 selectivity (fold)” value came out at 588 fold.

With `CN(C)Cc1ccc(-c2cn(Cc3ncc(-c4nnc(C(F)F)o4)cc3F)nn2)s1` [Compound 18311, 1-(5-(1-((5-(5-(difluoromethyl)-1,3,4-oxadiazol-2-yl)-3-fluoropyridin-2-yl)methyl)-1H-1,2,3-triazol-4-yl)thiophen-2-yl)-N,N-dimethylmethanamine], the IC50 in assay [1] (setting [5]) is above 50000 nM; in assay [2] (setting [6]), 53.5 nM. In assay [2] (HDAC6 over HDAC1), the “HDAC6 selectivity (fold)” value turned out to be 934 fold.

Consider `FC(F)c1nnc(-c2ccc(Cn3cc(-c4ccncc4)nn3)nc2)o1` [Compound 3837, 2-(difluoromethyl)-5-(6-((4-(pyridin-4-yl)-1H-1,2,3-triazol-1-yl)methyl)pyridin-3-yl)-1,3,4-oxadiazole], for which the IC50 in assay [1] (setting [3]) is above 50000 nM; in assay [2] (setting [4]), 51.8 nM. Besides, the “HDAC6 selectivity (fold)” value in assay [2] (HDAC1 IC50 / HDAC6 IC50) is 965 fold.

Consider `Fc1cc(-c2nnc(C(F)F)o2)ccc1Cn1cc(-c2ccc3c(c2)CCN(C2COC2)C3)nn1` [Compound 4362, 2-(difluoromethyl)-5-(3-fluoro-4-((4-(2-(oxetan-3-yl)-1,2,3,4-tetrahydroisoquinolin-6-yl)-1H-1,2,3-triazol-1-yl)methyl)phenyl)-1,3,4-oxadiazole], for which the IC50 in assay [1] (setting [3]) is above 50000 nM; in assay [2] (setting [4]) it was 65.6 nM. Further, the “HDAC6 selectivity (fold)” value in assay [2] (HDAC1 IC50 / HDAC6 IC50) turned out to be 762 fold.

Turning to `CC(C)N1CC(c2cccc(-c3cn(Cc4ccc(-c5nnc(C(F)F)o5)cc4)nn3)c2)C1` [Compound 4509, 2-(difluoromethyl)-5-(4-((4-(3-(1-isopropylazetidin-3-yl)phenyl)-1H-1,2,3-triazol-1-yl)methyl)phenyl)-1,3,4-oxadiazole], the IC50 was above 50000 nM in assay [1] (setting [5]) and 20.9 nM in assay [2] (setting [6]). The “HDAC6 selectivity (fold)” value in assay [2] (HDAC6 over HDAC1) amounted to 2392 fold.

Take `C[C@@H]1CN(c2cccc(-c3cn(Cc4ccc(-c5nnc(C(F)F)o5)cc4)nn3)c2)C[C@H](C)N1C` [Compound 4441, 2-(difluoromethyl)-5-(4-((4-(3-((3R,5S)-3,4,5-trimethylpiperazin-1-yl)phenyl)-1H-1,2,3-triazol-1-yl)methyl)phenyl)-1,3,4-oxadiazole]: the IC50 in assay [1] (setting [3]) is above 50000 nM; in assay [2] (setting [4]), 38 nM. Further, the “HDAC6 selectivity (fold)” value in assay [2] (HDAC1 IC50 / HDAC6 IC50) stood at 1315 fold.

In the case of `Fc1cc(-c2nnc(C(F)F)o2)ccc1Cn1cc(-c2ccc(CN3CC[C@@H](F)C3)nc2)nn1` [Compound 17774, (R)-2-(difluoromethyl)-5-(3-fluoro-4-((4-(6-((3-fluoropyrrolidin-1-yl)methyl)pyridin-3-yl)-1H-1,2,3-triazol-1-yl)methyl)phenyl)-1,3,4-oxadiazole], the IC50 in assay [1] (setting [5]) is above 50000 nM; in assay [2] (setting [6]), 55.7 nM. Further, the “HDAC6 selectivity (fold)” value in assay [2] (HDAC6 over HDAC1) turned out to be 897 fold.

For the molecule `Fc1cc(-c2nnc(C(F)F)o2)ccc1Cn1cc(-c2cccc(NC3COC3)c2)nn1` [Compound 4332, N-(3-(1-(4-(5-(difluoromethyl)-1,3,4-oxadiazol-2-yl)-2-fluorobenzyl)-1H-1,2,3-triazol-4-yl)phenyl)oxetan-3-amine], the IC50 in assay [1] (setting [3]) is above 50000 nM; in assay [2] (setting [4]) it was 41.6 nM. Besides, the “HDAC6 selectivity (fold)” value in assay [2] (HDAC1 IC50 / HDAC6 IC50) is given as 1201 fold.

With `CN(C)Cc1cccc(-c2cn(Cc3ccc(-c4nnc(C(F)F)o4)cn3)nn2)c1` [Compound 3915, 1-(3-(1-((5-(5-(difluoromethyl)-1,3,4-oxadiazol-2-yl)pyridin-2-yl)methyl)-1H-1,2,3-triazol-4-yl)phenyl)-N,N-dimethylmethanamine], the IC50 in assay [1] (setting [3]) was above 50000 nM; in assay [2] (setting [4]) it was 38.2 nM. For the same molecule, in assay [2] (HDAC1 IC50 / HDAC6 IC50), the “HDAC6 selectivity (fold)” value is on record as 1308 fold.

For the molecule `Fc1cc(-c2nnc(C(F)F)o2)ccc1Cn1cc(-c2cccc3cc[nH]c23)nn1` [Compound 4082, 2-(4-((4-(1H-indol-7-yl)-1H-1,2,3-triazol-1-yl)methyl)-3-fluorophenyl)-5-(difluoromethyl)-1,3,4-oxadiazole], the IC50 in assay [1] (setting [3]) was above 50000 nM; in assay [2] (setting [4]), 143 nM. For the same molecule, the “HDAC6 selectivity (fold)” value in assay [2] (HDAC1 IC50 / HDAC6 IC50) was 349 fold.

Take `CN(C)c1cccc(-c2cn(Cc3ccc(-c4nnc(C(F)F)o4)cc3F)nn2)c1` [Compound 3774, 3-(1-(4-(5-(difluoromethyl)-1,3,4-oxadiazol-2-yl)-2-fluorobenzyl)-1H-1,2,3-triazol-4-yl)-N,N-dimethylaniline]: the values for the IC50 in assay [1] (setting [3]) and in assay [2] (setting [4]) were above 50000 nM and 121 nM, respectively. Moreover, the “HDAC6 selectivity (fold)” value in assay [2] (HDAC1 IC50 / HDAC6 IC50) amounted to 412 fold.

On to `FC(F)c1nnc(-c2ccc(Cn3cc(-c4ccc5c(CN6CCCC6)c[nH]c5c4)nn3)nc2)o1` [Compound 4493, 2-(difluoromethyl)-5-(6-((4-(3-(pyrrolidin-1-ylmethyl)-1H-indol-6-yl)-1H-1,2,3-triazol-1-yl)methyl)pyridin-3-yl)-1,3,4-oxadiazole], for which the IC50 is above 50000 nM in assay [1] (setting [3]) and 6.5 nM in assay [2] (setting [4]). Moreover, in assay [2] (HDAC1 IC50 / HDAC6 IC50), the “HDAC6 selectivity (fold)” value was found to be 7692 fold.

Turning to `FC(F)c1nnc(-c2ccc(Cn3cc(C4CCCCC4)nn3)nc2)o1` [Compound 3880, 2-(6-((4-cyclohexyl-1H-1,2,3-triazol-1-yl)methyl)pyridin-3-yl)-5-(difluoromethyl)-1,3,4-oxadiazole], the values for the IC50 in assay [1] (setting [3]) and in assay [2] (setting [4]) were above 50000 nM and 79.7 nM, respectively. Also, in assay [2] (HDAC1 IC50 / HDAC6 IC50), the “HDAC6 selectivity (fold)” value stood at 627 fold.

For the molecule `C[C@@H]1CN(c2cccc(-c3cn(Cc4ccc(-c5nnc(C(F)F)o5)cc4F)nn3)c2)C[C@H](C)N1C` [Compound 4443, 2-(difluoromethyl)-5-(3-fluoro-4-((4-(3-((3R,5S)-3,4,5-trimethylpiperazin-1-yl)phenyl)-1H-1,2,3-triazol-1-yl)methyl)phenyl)-1,3,4-oxadiazole], the figures for the IC50 in assay [1] (setting [3]) and in assay [2] (setting [4]) were above 50000 nM and 22.9 nM, respectively. Further, the “HDAC6 selectivity (fold)” value in assay [2] (HDAC1 IC50 / HDAC6 IC50) is 2183 fold.

Regarding `OCCCCc1cn(Cc2ccc(-c3nnc(C(F)F)o3)cn2)nn1` [Compound 3834, 4-(1-((5-(5-(difluoromethyl)-1,3,4-oxadiazol-2-yl)pyridin-2-yl)methyl)-1H-1,2,3-triazol-4-yl)butan-1-ol], the IC50 in assay [1] (setting [3]) was above 50000 nM; in assay [2] (setting [4]), 238 nM. In addition, the “HDAC6 selectivity (fold)” value in assay [2] (HDAC1 IC50 / HDAC6 IC50) is on record as 217 fold.

Turning to `CC(C)C(=O)N1CC(c2cn(Cc3ccc(-c4nnc(C(F)F)o4)cn3)nn2)C1` [Compound 3958, 1-(3-(1-((5-(5-(difluoromethyl)-1,3,4-oxadiazol-2-yl)pyridin-2-yl)methyl)-1H-1,2,3-triazol-4-yl)azetidin-1-yl)-2-methylpropan-1-one], the results for the IC50 in assay [1] (setting [3]) and in assay [2] (setting [4]) were above 50000 nM and 429 nM, respectively. The “HDAC6 selectivity (fold)” value in assay [2] (HDAC1 IC50 / HDAC6 IC50) was found to be 116 fold.

For `Fc1cc(-c2nnc(C(F)F)o2)cnc1Cn1cc(-c2ccc3cc[nH]c3c2)nn1` [Compound 18918, 2-(6-((4-(1H-indol-6-yl)-1H-1,2,3-triazol-1-yl)methyl)-5-fluoropyridin-3-yl)-5-(difluoromethyl)-1,3,4-oxadiazole], the values for the IC50 in assay [1] (setting [5]) and in assay [2] (setting [6]) were above 50000 nM and 45.9 nM, respectively. Besides, in assay [2] (HDAC6 over HDAC1), the “HDAC6 selectivity (fold)” value stood at 1089 fold.
